Results taken from ChEMBL document CHEMBL2074426 (Mol Pharmacol, 2001).

Tests used:
Format in all cases: functional, cell-based
[1] = molecular target: ATP-dependent translocase ABCB1 (Homo sapiens, UniProt P08183); test: TP_TRANSPORTER: transepithelial transport (basal to apical) in MDR1-expressing LLC-PK1 cells; conditions: pig
[2] = molecular target: ATP-dependent translocase ABCB1 (Mus musculus, UniProt P06795); test: TP_TRANSPORTER: transepithelial transport (basal to apical) in mdr1b-expressing LLC-PK1 cell
Chain of ATP-dependent translocase ABCB1 (Mus musculus, UniProt P06795) (P06795 whole entry): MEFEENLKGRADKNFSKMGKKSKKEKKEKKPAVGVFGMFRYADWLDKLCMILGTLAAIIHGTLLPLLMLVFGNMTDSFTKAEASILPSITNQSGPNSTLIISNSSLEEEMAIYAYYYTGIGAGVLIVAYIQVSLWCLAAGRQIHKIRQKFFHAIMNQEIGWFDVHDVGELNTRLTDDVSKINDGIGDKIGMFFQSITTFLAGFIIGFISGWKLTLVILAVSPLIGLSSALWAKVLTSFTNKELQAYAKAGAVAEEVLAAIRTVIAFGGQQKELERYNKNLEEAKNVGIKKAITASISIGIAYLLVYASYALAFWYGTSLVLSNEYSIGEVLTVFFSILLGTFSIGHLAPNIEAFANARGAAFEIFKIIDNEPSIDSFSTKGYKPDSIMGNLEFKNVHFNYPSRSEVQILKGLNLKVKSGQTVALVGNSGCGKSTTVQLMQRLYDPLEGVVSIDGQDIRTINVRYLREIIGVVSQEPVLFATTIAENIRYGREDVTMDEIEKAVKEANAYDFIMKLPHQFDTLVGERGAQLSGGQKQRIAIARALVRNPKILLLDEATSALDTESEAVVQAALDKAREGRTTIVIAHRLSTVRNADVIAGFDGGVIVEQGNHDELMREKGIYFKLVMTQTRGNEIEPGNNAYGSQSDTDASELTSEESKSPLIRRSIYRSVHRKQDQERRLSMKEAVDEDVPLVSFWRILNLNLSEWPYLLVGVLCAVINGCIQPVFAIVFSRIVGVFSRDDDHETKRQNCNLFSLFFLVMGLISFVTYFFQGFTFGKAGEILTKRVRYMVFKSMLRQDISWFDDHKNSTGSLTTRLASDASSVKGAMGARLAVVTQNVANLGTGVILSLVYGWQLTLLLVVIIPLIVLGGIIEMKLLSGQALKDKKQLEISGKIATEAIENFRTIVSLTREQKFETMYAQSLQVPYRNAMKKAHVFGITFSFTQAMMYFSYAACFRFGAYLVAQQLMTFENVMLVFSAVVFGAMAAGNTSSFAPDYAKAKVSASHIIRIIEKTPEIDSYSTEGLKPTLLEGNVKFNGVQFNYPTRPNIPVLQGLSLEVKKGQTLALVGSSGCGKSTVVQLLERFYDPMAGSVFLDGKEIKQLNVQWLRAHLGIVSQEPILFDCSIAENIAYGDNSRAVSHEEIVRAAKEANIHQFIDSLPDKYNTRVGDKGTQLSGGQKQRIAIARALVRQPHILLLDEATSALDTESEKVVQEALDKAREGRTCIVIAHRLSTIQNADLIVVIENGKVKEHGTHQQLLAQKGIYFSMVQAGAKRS

[3] = molecular target: ATP-dependent translocase ABCB1 (Mus musculus, UniProt P21447); test: TP_TRANSPORTER: transepithelial transport (basal to apical) in mdr1a-expressing LLC-PK1 cell; conditions: pig
Chain of ATP-dependent translocase ABCB1 (Mus musculus, UniProt P21447) (P21447 whole entry): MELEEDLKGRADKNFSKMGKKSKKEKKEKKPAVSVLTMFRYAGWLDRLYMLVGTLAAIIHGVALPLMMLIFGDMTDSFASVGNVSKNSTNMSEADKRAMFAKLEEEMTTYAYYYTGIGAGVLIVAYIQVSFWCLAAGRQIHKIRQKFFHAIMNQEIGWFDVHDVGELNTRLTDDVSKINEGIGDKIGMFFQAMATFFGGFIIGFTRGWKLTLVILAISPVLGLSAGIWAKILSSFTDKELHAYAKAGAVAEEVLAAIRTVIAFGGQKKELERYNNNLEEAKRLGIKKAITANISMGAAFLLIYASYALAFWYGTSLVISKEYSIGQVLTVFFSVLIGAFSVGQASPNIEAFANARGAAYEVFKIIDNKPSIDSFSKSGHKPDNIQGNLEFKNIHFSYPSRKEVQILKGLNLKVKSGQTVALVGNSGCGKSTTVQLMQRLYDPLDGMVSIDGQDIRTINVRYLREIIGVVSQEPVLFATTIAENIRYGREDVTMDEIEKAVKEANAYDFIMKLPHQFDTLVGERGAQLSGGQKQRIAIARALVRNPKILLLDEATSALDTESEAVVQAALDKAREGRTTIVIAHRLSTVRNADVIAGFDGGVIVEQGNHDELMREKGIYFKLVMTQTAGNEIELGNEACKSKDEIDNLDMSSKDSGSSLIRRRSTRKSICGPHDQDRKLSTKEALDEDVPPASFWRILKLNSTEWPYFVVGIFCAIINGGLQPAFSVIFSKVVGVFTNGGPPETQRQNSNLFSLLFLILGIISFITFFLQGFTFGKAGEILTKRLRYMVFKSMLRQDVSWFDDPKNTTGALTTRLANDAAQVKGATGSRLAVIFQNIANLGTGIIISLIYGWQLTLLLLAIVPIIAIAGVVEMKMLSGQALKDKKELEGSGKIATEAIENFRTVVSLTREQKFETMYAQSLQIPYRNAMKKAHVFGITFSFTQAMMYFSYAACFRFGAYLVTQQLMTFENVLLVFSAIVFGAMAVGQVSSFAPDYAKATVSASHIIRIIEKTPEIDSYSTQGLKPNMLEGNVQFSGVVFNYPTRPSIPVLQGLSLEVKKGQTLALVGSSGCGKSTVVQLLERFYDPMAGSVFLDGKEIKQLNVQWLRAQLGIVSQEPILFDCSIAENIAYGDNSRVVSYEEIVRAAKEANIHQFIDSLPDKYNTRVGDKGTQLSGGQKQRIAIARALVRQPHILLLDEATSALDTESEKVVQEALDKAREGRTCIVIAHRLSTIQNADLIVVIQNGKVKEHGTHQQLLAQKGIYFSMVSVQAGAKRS

Measured: Activity

Chain of ATP-dependent translocase ABCB1 (Homo sapiens, UniProt P08183) (P08183 whole entry): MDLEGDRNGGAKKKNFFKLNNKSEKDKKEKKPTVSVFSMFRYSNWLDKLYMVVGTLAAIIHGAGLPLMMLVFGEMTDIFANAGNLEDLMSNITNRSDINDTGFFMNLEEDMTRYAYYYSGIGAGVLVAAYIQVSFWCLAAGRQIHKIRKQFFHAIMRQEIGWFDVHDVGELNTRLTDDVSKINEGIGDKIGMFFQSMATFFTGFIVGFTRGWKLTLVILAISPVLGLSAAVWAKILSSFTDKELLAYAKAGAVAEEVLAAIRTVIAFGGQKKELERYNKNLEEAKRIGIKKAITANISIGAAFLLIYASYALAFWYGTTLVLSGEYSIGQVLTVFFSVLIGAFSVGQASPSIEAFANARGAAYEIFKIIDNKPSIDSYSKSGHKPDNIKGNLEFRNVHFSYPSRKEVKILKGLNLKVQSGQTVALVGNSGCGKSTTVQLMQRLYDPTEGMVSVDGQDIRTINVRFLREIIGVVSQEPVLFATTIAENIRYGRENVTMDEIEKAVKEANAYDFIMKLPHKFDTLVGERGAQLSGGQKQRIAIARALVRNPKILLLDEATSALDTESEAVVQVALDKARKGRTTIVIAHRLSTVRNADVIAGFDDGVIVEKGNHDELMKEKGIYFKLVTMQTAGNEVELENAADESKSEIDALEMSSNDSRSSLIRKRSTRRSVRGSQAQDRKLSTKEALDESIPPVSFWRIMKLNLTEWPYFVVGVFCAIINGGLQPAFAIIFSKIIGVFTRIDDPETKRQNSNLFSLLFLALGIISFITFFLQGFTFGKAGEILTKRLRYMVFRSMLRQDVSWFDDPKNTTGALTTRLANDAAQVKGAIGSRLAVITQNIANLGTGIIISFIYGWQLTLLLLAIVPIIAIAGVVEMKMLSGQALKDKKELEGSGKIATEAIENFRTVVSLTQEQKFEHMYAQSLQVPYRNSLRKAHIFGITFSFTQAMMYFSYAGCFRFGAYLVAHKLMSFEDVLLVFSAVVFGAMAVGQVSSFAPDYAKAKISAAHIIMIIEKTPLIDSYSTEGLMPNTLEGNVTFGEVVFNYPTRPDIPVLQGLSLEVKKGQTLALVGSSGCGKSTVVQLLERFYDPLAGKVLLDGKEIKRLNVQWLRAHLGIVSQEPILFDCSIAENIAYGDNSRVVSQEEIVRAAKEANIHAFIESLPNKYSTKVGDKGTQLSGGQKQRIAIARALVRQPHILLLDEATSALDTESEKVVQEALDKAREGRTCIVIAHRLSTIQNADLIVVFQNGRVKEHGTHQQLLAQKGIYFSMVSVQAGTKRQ

CC(C)(C)NC(=O)[C@@H]1C[C@@H]2CCCC[C@@H]2CN1C[C@@H](O)[C@H](Cc1ccccc1)NC(=O)[C@H](CC(N)=O)NC(=O)c1ccc2ccccc2n1
substrate [+]: all assays above
